Measurements: patent US20230277698A1, “SILICON-CONTAINING LIGAND COMPOUNDS” (Technische Universität München, priority 2020, published 2023)

Experiments:
[1] = test system: LNCaP cells; assay: Internalization studies on LNCaP cells; assay type: cell-based; conditions: 177Lu-labelled, c=1.0 nM, 1 hour, 37 °C; % of reference ligand ([125I]I-BA)KuE (c=0.2 nM); corrected for non-specific binding (PMPA); mean±SD, n=3-6
Procedure: PSMA-positive LNCAP cells (300265; Cell Lines Service, Eppelheim, Germany) were cultivated in Dulbecco modified Eagle medium/Nutrition Mixture F-12 with Glutamax (1:1) (DMEM-F12, Biochrom, Berlin, Germany) supplemented with fetal bovine serum (10%, FBS Zellkultur, Berlin, Germany) and kept at 37° C. in a humidified CO2 atmosphere (5%). A mixture of trypsin and EDTA (0.05%, 0.02%) in PBS (Biochrom) was used in order to harvest cells. Cells were counted with a Neubauer hemocytometer (Paul Marienfeld, Lauda-Königshofen, Germany).
For internalization studies, LNCaP cells were harvested 24±2 hours before the experiment and seeded in poly-L-lysine coated 24-well plates (1.25×10^5 cells in 1 mL/well, Greiner Bio-One, Kremsmünster, Austria). After removal of the culture medium, the cells were washed once with 500 μL DMEM-F12 (5% BSA) and left to equilibrate for at least 15 min at 37° C. in 200 μL DMEM-F12 (5% BSA). Each well was treated with either 25 μL of either DMEM-F12 (5% BSA, control) or 25 μL of a 100 μM PMPA (2-(Phosphonomethyl)-pentandioic acid, Tocris Bioscience, Bristol, UK) solution in PBS, for blockade. Next, 25 μL of the radioactive-labelled PSMA inhibitor (10.0 nM in PBS) was added and the cells were incubated at 37° C. for 60 min. The experiment was terminated by placing the 24-well plate on ice for 3 min and consecutive removal of the medium. Each well was carefully washed with 250 μL of ice-cold HBSS. Both fractions from the first steps, representing the amount of free radioligand, were combined. Removal of surface bound activity was accomplished by incubation of the cells with 250 μL of ice-cold PMPA (10 μM in PBS) solution for 5 min and rinsed again with another 250 μL of ice-cold PBS. The internalized activity was determined by incubation of the cells in 250 μL 1 M aqueous NaOH for at least 10 min. The obtained fractions were combined with those of the subsequent wash step with 250 μL 1 M aqueous NaOH. Each experiment (control and blockade) was performed in triplicate. Free, surface bound and internalized activity was quantified in a γ-counter. All internalization studies were accompanied by external reference studies, using ([^125I]l-BA)KuE (c=0.2 nM), which were performed analogously. Data were corrected for non-specific binding and normalized to the specific-internalization observed for the radioiodinated reference compound.
Data is corrected for non-specific binding (10 μmol PMPA) and expressed as mean±SD (n=3-6): […]

[2] = target: human serum albumin (HSA) (Homo sapiens, UniProt P02768); assay: HSA binding by radio inversed affinity chromatography (RIAC); assay type: in vitro ADME; conditions: 177Lu-labelled; Superdex 75 Increase 10/300 GL, 700 μM HSA in PBS, 0.8 mL/min
Procedure: A gel filtration column Superdex 75 Increase 10/300 GL (GE Healthcare, Uppsala, Sweden) was beforehand calibrated following the producer's recommendations with a commercially available gel filtration calibration kit (GE Healthcare, Buckinghamshire, UK) comprising conalbumin (MW: 75 kDa), ovalbumin (44 kDa), carbonic anhydrase (29 kDa), ribonuclease A (13.7 kDa) and aprotinin (6.5 kDa) as reference proteins of known molecular weight. RIAC experiments were conducted using a constant flow rate of 0.8 mL/min at rt. A solution of HSA in PBS at physiological concentration (700 μM) was used as the mobile phase. PSMA ligands were labelled as described with molar activities of 10-20 GBq/μmol. Probes of 1.0 MBq of the radioligand were injected directly from the labelling solution. HSA binding was expressed as an apparent molecular weight MW calculated from the retention time of the radioligand using the determined calibration curve.
The following table summarizes the underlying data. MW: molecular weight. tR: experimentally determined retention time. V: elution volume. Kav: partition coefficient.
RIAC, in an inversed way, comprises ligand samples (radiolabeled PSMA ligands) and a protein (HSA) containing mobile phase. Ligand-specific retention is caused by interaction of the ligand probe and HSA in the mobile phase. Unbound species, due to a molecular weight beneath the molecular cut off of the gel filtration column, are maximally retained while bound species are eluted in accordance to the higher molecular weight of the ligand-HSA-complex (MWHSA: 66.47 kDa). Experiments show a single radiopeak indicating a dynamic process of formation and dissociation of the ligand-HSA-complex throughout the passage through the column bed. Accordingly, the absolute retention time is the result of the ligand's mean time of abidance at HSA which is directly defined by the ligand's binding kinetics and affinity toward HSA. For evaluation, experimentally determined retention times tR are first converted into elution volumes Ve by multiplying with the flow rate and thereafter converted into partition coefficients Kav following the equation
where V0 is the column void volume (8.027 mL) and Vc is the geometric column volume (24 mL). Using the equation given by the trend line plot of the column calibration
the apparent molecular weight MW is calculated as
FIG. 7 and the table below show the results HSA-binding of lutetium-complexed PSMA-ligands and reference compounds determined by RIAC on a Superdex 75 Increase 10/300 GL column 700 μM HSA in PBS as solvent using a constant flow rate of 0.8 mL/min (plotted data, extracted from FIG. 8).
FIG. 8 illustrates the determination of HSA binding via radio inverse affinity chromatography (RIAC). Correlation of apparent molecular weight (MW) in Dalton (Da) and retention time of ^177Lu-labeled samples, determined on a Superdex 75 Increase 10/300 GL with 700 μM HSA in PBS as solvent using a constant flow rate of 0.8 mL/min.

[3] = test system: LNCaP tumor-bearing CB17-SCID mice; assay: Biodistribution studies 24 h p.i.; assay type: in vivo; conditions: 177Lu-labelled, mean±SD, n=4-5
Procedure: All animal experiments were conducted in accordance with general animal welfare regulations in Germany (German animal protection act, as amended on 18 May 2018, Art. 141 G v. 29.3.2017|626, approval no. 55.2-1-54-2532-71-13) and the institutional guidelines for the care and use of animals. To establish tumor xenografts, LNCaP cells (approx. 10^7 cells) were suspended in 200 μL of a 1:1 mixture (v/v) of DMEM F-12 and Matrigel (BD Biosciences, Germany), and inoculated subcutaneously onto the right shoulder of 6-8 weeks old CB17-SCID mice (Charles River, Sulzfeld, Germany). Mice were used for experiments when tumors had grown to a diameter of 5-10 mm (3-6 weeks after inoculation).
Approximately 5-10 MBq (0.1-0.2 nmol) of the radioactive-labelled PSMA inhibitors were injected into the tail vein of LNCaP tumor-bearing male CB-17 SCID mice and sacrificed after 24 h post injection. Selected organs were removed, weighted and measured in a γ-counter.
FIG. 10 and the following table show the biodistribution data 24 h p.i. of ^177Lu-labeled compounds in LNCaP tumor-bearing CB17-SCID mice. Data are expressed as mean±SD (n=4-5).

Sequence of human serum albumin (HSA) (P02768 25-609): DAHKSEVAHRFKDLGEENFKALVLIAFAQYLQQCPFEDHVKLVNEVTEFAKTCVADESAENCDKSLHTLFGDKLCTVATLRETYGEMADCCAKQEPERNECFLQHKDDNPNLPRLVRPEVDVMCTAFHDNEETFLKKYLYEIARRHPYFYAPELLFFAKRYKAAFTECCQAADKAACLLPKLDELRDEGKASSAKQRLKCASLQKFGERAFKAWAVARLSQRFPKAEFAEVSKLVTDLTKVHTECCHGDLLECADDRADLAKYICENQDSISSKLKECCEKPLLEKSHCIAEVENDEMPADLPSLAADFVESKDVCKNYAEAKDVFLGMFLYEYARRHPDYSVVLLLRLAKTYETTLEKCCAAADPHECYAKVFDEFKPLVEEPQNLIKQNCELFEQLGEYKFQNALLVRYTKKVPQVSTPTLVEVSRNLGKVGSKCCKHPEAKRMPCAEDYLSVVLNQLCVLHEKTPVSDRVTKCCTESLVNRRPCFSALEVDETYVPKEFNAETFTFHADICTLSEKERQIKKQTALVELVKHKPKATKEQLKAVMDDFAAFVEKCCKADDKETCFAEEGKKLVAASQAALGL

## O=C(O)CC[C@H](NC(=O)N[C@@H](CCCCNC(=O)CCCCCCC(=O)NCCCC[C@@H](NC(=O)[C@@H](Cc1ccccc1)NC(=O)[C@@H](Cc1ccc(O)c(I)c1)NC(=O)CCC(C(=O)O)N1CCN(CC(=O)O)CCN(CC(=O)O)CCN(CC(=O)O)CC1)C(=O)O)C(=O)O)C(=O)O (stereo partly drawn) [PSMA I&T, reference compound]
[1]
  Internalization (% IBA): 76 ± 2 % IBA
[2]
  HSA-binding RIAC (apparent molecular weight): 5.3 kDa
[3]; LNCaP xenograft
  biodistribution: tumor: 4.1 ± 1.1 % ID/g
[3]; i.v. tail vein
  biodistribution: blood: 0.012 ± 0.01 % ID/g
[3]
  biodistribution: adrenals: 1.06 ± 0.24 % ID/g
  biodistribution: bone: 0.01 ± 0.01 % ID/g
  biodistribution: heart: 0.05 ± 0.03 % ID/g
  biodistribution: intestine: 0.12 ± 0.06 % ID/g
  biodistribution: kidneys: 34.7 ± 17.2 % ID/g
  biodistribution: liver: 0.05 ± 0.01 % ID/g
  biodistribution: lung: 0.16 ± 0.03 % ID/g
  biodistribution: muscle: 0.01 ± 0.01 % ID/g
  biodistribution: pancreas: 0.05 ± 0.02 % ID/g
  biodistribution: spleen: 1.94 ± 1.01 % ID/g
  biodistribution: stomach: 0.05 ± 0.02 % ID/g
